Test results: US20260176260A1, “DUAL RAF AND TUBULIN INHIBITORS AND METHODS OF USE THEREOF” (Deciphera Pharmaceuticals, LLC, priority 2023, published 2026)
pIC50: −log10 of the molar value. Where two headings read alike, the source gives them in different places.

Assays:
B-Raf kinase = target: T1, B-Raf kinase (Homo sapiens, UniProt P15056); test: Biochemical assay for B-Raf (coupled pyruvate kinase/lactate dehydrogenase); conditions: read-out: BRAF
T1 construct: purchased Sigma

C-Raf kinase = target: T2, C-Raf kinase (Homo sapiens, UniProt P04049, Y340D/Y341D); test: Biochemical assay for C-Raf (coupled pyruvate kinase/lactate dehydrogenase); conditions: read-out: CRAF
T2 construct: C-Raf residues 306-end; Y340D, Y341D with N-; purchased Sigma

MiaPaca-2 cells = test: MiaPaca-2 cell proliferation assay (resazurin); format: cell-based; conditions: Homo sapiens, MIA PaCa-2, read-out: MiaPaca-2
Protocol: MiaPaca-2 cells (catalog #CRL-1420) are obtained from the American Type Culture Collect (ATTC, Manassas, VA). Briefly, cells were grown in DMVEM supplemented with […] fetal bovine serum (Invitrogen, Carlsbad, CA), 2.5% New Zealand sourced horse serum and 1% Penicillin/Streptomycin/L-Glutamine at 37° C., […], and […]. Cells are expanded until reaching […] at which point they are sub-cultured or harvested for assay use. For assays completed in 96-well plates, a serial dilution of test compound is dispensed into a 96-well black clear bottom plate in triplicate. Three thousand cells are added per well in 200 μL complete growth medium in the 96-well plate. Plates are incubated for 67 to 72 h at 37° C., 5% CO2, and 95% humidity. At the end of the incubation, 40 μL of a […] solution of resazurin (Sigma, St. Louis, MO) in PBS is added to each well of the plate and plates are incubated for an additional 5 to 6 h at 37° C., 5% CO2, and 95% humidity. For 384-well assays, a threefold, 8-point serial dilution of compound was spotted column wise into a 384 well black, clear bottom, tissue culture treated plate using the Beckman Coulter Echo 650. Likewise, a threefold, 8-point serial dilution of cobimetinib was spotted row wise into the 384 well black, clear bottom plate containing compound. DMSO concentration was constant across all wells at 0.4%. Seven hundred fifty cells are added per well in 50 μL complete growth medium in each 384-well plate. Plates are incubated for 67 to 72 h at 37° C., 5% CO2, and 95% humidity. At the end of the incubation, 10 μL of a 440 μM solution of resazurin (Sigma, St. Louis, MO) in PBS is added to each well of the plate and plates are incubated for an additional 4 to 6 h at 37° C., 5% CO2, and 95% humidity. Plates are read on a Synergy2 or equivalent reader (Biotek, Winooski VT) using an excitation of 540 nm and an emission of 600 nm. Data is analyzed using Prism software (Graphpad, San Diego, CA) to calculate IC50 values.

HCT-116 cells = test: HCT-116 cell proliferation assay (resazurin); format: cell-based; conditions: Homo sapiens, read-out: HCT-116
Protocol: HCT-116 cells (catalog #CCL-247) are obtained from the American Type Culture Collect (ATCC, Manassas, VA). Briefly, cells are grown in McCoy's 5A supplemented with 10% characterized fetal bovine serum (Invitrogen, Carlsbad, CA) and 1% Penicillin/Streptomycin/L-Glutamine at 37° C., 5% CO2, and 95% humidity. Cells are expanded until reaching 70-95% confluency at which point they are sub-cultured or harvested for assay use. A serial dilution of test compound is dispensed into a 384-well black clear bottom plate in triplicate. 375 cells are added per well in 50 μL complete growth medium in the 384-well plate. Plates are incubated for 67 to 72 h at 37° C., 5% CO2, and 95% humidity. At the end of the incubation, 40 μL of a […] solution of resazurin (Sigma, St. Louis, MO) in PBS is added to each well of the plate and plates are incubated for an additional 4 to 5 h at 37° C., 5% CO2, and 95% humidity. Plates are read on a Synergy2 or equivalent reader (Biotek, Winooski, VT) using an excitation of 540 nm and an emission of 600 nm. Data is analyzed using Prism software (Graphpad, San Diego, CA) to calculate IC50 values.

HPAF-II cells = test: HPAF-II cell proliferation assay (resazurin); format: cell-based; conditions: Homo sapiens, read-out: HPAF-II
Protocol: (§1) HPAF-II cells (catalog #CRL-1997) are obtained from the American Type Culture Collect (ATCC, Manassas, VA). Briefly, cells are grown in Minimum Essential Media supplemented with 10% characterized fetal bovine serum (Invitrogen, Carlsbad, CA) and 1% Penicillin/Streptomycin/L-Glutamine at 37° C., 5% CO2, and 95% humidity. Cells are expanded until reaching 70-95% confluency at which point they are sub-cultured or harvested for assay use. A serial dilution of test compound is dispensed into a 384-well black clear bottom plate in triplicate. 750 cells are added per well in 50 μL complete growth medium in the 384-well plate. Plates are incubated for 115 to 120 h at 37° C., 5% CO2, and 95% humidity. At the end of the incubation, 40 μL of a […] solution of resazurin (Sigma, St. Louis, MO) in PBS is added to each well of the plate and plates are incubated for an additional 18 to 24 h at 37° C., 5% CO2, and 95% humidity. Plates are read on a Synergy2 or equivalent reader (Biotek, Winooski, VT) using an excitation of 540 nm and an emission of 600 nm. Data is analyzed using Prism software (Graphpad, San Diego, CA) to calculate IC50 values.

Pa16c cells = test: Pa16c cell proliferation assay (resazurin); format: cell-based; conditions: Table 2, inhibition of cell proliferation
Protocol: as §1, with “Pa16c” for “HPAF-II”, “cells” for “cells (catalog #CRL-1997)”, “Dr. Channing Der, University of North Carolina at Chapel Hill.” for “the American Type Culture Collect (ATCC, Manassas, VA).”, “Dulbecco's Modified Eagle Medium” for “Minimum Essential Media”, “67” for “115”, “72” for “120”

Porcine Brain Tubulin = target: T3, Porcine Brain Tubulin (Sus scrofa, UniProt P02550+P02554); test: Biochemical tubulin polymerization assay; conditions: Table 5; read-out: Tubulin Biochem
T3 construct: Porcine Brain Tubulin (T240); purchased Cytoskeleton, Inc T240; BK011P; host or cells: porcine brain

[1] = Table 1, inhibition of biochemical activity
[2] = Table 2, inhibition of cell proliferation

T1 sequence (P15056 416-766): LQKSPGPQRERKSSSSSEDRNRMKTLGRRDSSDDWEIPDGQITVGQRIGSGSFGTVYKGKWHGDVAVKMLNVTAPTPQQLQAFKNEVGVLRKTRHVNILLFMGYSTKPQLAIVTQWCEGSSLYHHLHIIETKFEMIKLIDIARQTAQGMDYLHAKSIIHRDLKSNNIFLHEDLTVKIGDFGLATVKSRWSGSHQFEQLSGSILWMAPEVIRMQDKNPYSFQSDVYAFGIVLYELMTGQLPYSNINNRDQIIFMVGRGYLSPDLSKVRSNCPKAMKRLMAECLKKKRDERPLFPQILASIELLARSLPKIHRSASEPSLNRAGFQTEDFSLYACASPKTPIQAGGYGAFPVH
T2 sequence (P04049 307-648 Y340D/Y341D): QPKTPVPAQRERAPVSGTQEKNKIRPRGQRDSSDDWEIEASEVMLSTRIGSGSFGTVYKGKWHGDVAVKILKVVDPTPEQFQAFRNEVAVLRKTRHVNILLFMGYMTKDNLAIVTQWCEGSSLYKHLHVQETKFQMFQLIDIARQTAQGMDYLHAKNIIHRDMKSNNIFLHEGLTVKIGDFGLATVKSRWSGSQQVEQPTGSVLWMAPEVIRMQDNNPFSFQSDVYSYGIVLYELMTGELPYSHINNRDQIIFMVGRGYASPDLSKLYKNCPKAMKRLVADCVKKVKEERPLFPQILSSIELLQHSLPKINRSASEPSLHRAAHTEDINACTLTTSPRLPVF
T3 sequence (P02550 whole entry): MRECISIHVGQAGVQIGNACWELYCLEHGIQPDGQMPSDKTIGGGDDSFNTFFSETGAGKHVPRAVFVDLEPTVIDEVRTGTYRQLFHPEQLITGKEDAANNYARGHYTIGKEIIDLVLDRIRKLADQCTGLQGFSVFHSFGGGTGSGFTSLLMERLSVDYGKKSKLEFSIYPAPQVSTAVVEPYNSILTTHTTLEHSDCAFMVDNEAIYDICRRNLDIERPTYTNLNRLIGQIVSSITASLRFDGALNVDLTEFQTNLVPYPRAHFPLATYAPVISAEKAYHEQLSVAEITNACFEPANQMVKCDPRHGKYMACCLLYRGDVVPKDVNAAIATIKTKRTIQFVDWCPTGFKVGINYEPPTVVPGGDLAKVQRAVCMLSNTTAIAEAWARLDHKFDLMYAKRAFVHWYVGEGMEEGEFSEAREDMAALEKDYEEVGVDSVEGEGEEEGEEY
T3 sequence (P02554 whole entry): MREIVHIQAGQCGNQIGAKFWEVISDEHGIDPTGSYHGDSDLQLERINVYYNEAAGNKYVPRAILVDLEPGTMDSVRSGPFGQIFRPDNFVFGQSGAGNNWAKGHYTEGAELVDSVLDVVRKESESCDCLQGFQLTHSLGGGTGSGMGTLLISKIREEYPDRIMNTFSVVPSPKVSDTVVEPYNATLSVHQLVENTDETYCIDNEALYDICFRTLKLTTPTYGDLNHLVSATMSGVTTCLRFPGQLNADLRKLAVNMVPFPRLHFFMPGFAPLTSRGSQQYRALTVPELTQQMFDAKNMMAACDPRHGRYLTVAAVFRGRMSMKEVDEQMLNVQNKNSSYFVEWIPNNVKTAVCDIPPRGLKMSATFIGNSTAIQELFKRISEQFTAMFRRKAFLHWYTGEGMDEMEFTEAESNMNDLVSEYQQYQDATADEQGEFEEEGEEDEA

Structure (SMILES)	pIC50 (B-Raf kinase; [1])	pIC50 (C-Raf kinase; [1])	pIC50 (MiaPaca-2 cells; [2])	pIC50 (HCT-116 cells; [2])	pIC50 (HPAF-II cells; [2])	pIC50 (Pa16c cells)	pIC50 (MiaPaca-2 cells; Table 5)	pIC50 (HCT-116 cells; Table 5)	pIC50 (HPAF-II cells; Table 5)	pIC50 (Porcine Brain Tubulin)	pIC50 (B-Raf kinase; Table 5)	pIC50 (C-Raf kinase; Table 5)
CNC(=O)c1cc(-c2cc(-c3cc(NC(=O)c4cc(C5CC5)cnn4)ccc3C)cc(OCCO)n2)ccn1 [Example 34]	> 7.00	> 7.00	6.00 to 6.30	6.30 to 7.00	6.00 to 6.30	6.30 to 7.00	–	–	–	–	–	–
CC(C)(C)c1nc(-c2cccc(NS(=O)(=O)c3c(F)cccc3F)c2F)c(-c2ccnc(N)n2)s1 [Dabrafenib, reference compound]	–	–	–	–	–	–	5.00 to 6.00	5.00 to 6.00	5.00 to 6.00	< 4.00	–	–
CNC(=O)c1cc(-c2cncc(-c3cc(NC(=O)c4cc(C(C)(F)F)cnn4)ccc3C)c2)ccn1 [Example 30]	> 7.00	> 7.00	5.00 to 6.00	6.00 to 6.30	5.00 to 6.00	5.00 to 6.00	–	–	–	–	–	–
CNC(=O)c1cc(-c2cc(-c3cc(NC(=O)c4cc(Cl)cnn4)ccc3C)ccn2)ccn1 [Example 36]	6.30 to 7.00	> 7.00	6.00 to 6.30	6.00 to 6.30	5.00 to 6.00	5.00 to 6.00	–	–	–	–	–	–
CNC(=O)c1cc(-c2cc(-c3cc(NC(=O)c4cc(C(F)(F)F)cnn4)ccc3C)nc(NCCO)n2)ccn1 [Example 19]	> 7.00	> 7.00	6.30 to 7.00	6.30 to 7.00	6.30 to 7.00	6.00 to 6.30	–	–	–	–	–	–
Cc1ccc(NC(=O)c2ccnc(C(F)(F)F)c2)cc1-c1cc(OCCO)nc(N2CCOCC2)c1 [Naporafenib, reference compound]	–	–	–	–	–	–	5.00 to 6.00	5.00 to 6.00	5.00 to 6.00	< 4.00	> 7.00	> 7.00
CNC(=O)c1cc(-c2cc(-c3cc(NC(=O)c4cc(C(F)(F)F)cnn4)ccc3C)cc(OCCO)n2)ccn1 [Example 35]	> 7.00	> 7.00	6.30 to 7.00	6.30 to 7.00	6.30 to 7.00	6.30 to 7.00	–	–	–	–	–	–
